Several values for one entry are separate records, joined by “and”; a condition that tells them apart may be missing. Identical values can stand only once.
Legend:
porcine pepsin = molecular target: T1, porcine pepsin (Sus scrofa, UniProt P00791); experiment: Peptide stability in simulated gastric fluid (SGF); type: in vitro ADME
T1 construct: 0.32 g of porcine pepsin (Sigma-Aldrich, P7125) was dissolved under gentle agitation; purchased Sigma-Aldrich P7125
Protocol: (§1) Simulated gastric and intestinal fluids were prepared according to the States Pharmacopeia specifications (Test Solutions, United States Pharmacopeia 35, NF 30, 2012). SGF: 0.2 g of sodium chloride was dissolved in 50 ml of water, and the pH was adjusted to 1.2 by addition of 0.7 ml of 10 M hydrochloric acid. Then, 0.32 g of porcine pepsin (Sigma-Aldrich, P7125) was dissolved under gentle agitation, and the volume was filled up to 100 ml with Milli-Q water. SIF: 0.68 g of monobasic potassium phosphate was dissolved in 25 ml of Milli-Q water, and the pH was adjusted to 6.8 by adding 7.7 ml of a 0.2 M sodium hydroxide solution. Next, 1 g of porcine pancreatin (Sigma-Aldrich, P3292) was added under gentle agitation, and the volume was adjusted to 100 ml with Milli-Q water to afford a fine suspension. To test the stability in simulated gastrointestinal fluids, 396 μl of SGF or SIF was pre-heated at 37 °C for 10 min, and 4 μl of a 1 mM peptide solution in DMSO was added. […] Supernatant was analyzed by LC–MS to measure the peptide concentrations at the different timepoints. Residual peptide was calculated by normalizing the concentrations measured at T1 to T0.

rat α-thrombin = molecular target: T2, rat α-thrombin (Rattus norvegicus, UniProt P18292); experiment: Protease inhibition, Ki for rat α-thrombin (fluorogenic substrate Z-Gly-Gly-Arg-AMC); type: biochemical; conditions: replicates R1-R3
T2 construct: rat α-thrombin (Molecular Innovations) were used at final concentrations of 2 nM and 3 nM; purchased Molecular Innovations
Method in brief: (§2)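 Ki derived through Cheng–Prusoff from IC50s (four-parameter logistic fit) against activity of peptide-free controls. Product fluorescence was read every 3 min over 30 min at 25 °C, substrate Z-Gly-Gly-Arg-AMC at 50 μM. Enzyme was 2 nM human or 3 nM rat α-thrombin, pH 7.4 buffer.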

porcine pancreatin = experiment: Peptide stability in simulated intestinal fluid (SIF); type: in vitro ADME; conditions: after 8 h vs 0 h (TIC); average of R1-R3
Protocol: as §1

[1] = as above; type: in vitro ADME, porcine; conditions: simulated gi fluid; 8 h, 37 °C, pH 6.8; read-out: Proteolytic stability: SIF (8 h) % remaining
Protocol: as §1

[2] = Passive artificial membrane permeability (PAMPA)
[3] = Metabolic stability in rat liver microsomes (RLMs); conditions: rat, microsomes
human α-thrombin = human α-thrombin (Homo sapiens, UniProt P00734); experiment: Protease inhibition, Ki for human α-thrombin (fluorogenic substrate Z-Gly-Gly-Arg-AMC); type: biochemical; conditions: replicates R1-R3
Method in brief: as §2

[4] = peptide 1.33E+02 uM, slope of proteolytic substrate cleavage over time

T1 sequence (P00791 60-385): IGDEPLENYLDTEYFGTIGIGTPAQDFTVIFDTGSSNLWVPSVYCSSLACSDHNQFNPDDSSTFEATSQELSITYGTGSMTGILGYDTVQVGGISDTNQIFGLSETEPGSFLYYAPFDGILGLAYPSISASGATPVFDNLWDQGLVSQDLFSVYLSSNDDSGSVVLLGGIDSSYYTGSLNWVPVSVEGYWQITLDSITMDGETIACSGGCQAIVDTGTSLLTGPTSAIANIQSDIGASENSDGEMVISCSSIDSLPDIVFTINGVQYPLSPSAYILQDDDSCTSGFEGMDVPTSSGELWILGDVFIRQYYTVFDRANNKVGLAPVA

SGF stability, Residual peptide Average (porcine pepsin; after 8 h vs 0 h (TIC), average of R1-R3): 103.72
SGF stability, Residual peptide (porcine pepsin; after 8 h vs 0 h (TIC), single replicates R1-R3): 109.74 and 107.42 and 94.00
remaining at 8 h (porcine pepsin; simulated gi fluid, 8 h, 37 °C, pH 1.2, read-out: Proteolytic stability: SGF (8 h) % remaining): 104 ± 8%
Rat alpha thrombin inhibition, slope normalized to DMSO (rat α-thrombin; [4]): 2.5 and 3.0 and 16.1
Rat alpha thrombin inhibition, slope normalized to DMSO (rat α-thrombin; peptide 1.67E+01 uM): 7.6 and 7.2 and 19.3
Rat alpha thrombin inhibition, slope normalized to DMSO (rat α-thrombin; peptide 2.08E+00 uM): 36.1 and 33.7 and 41.7
Slope normalized to DMSO (proteolytic substrate cleavage over time) (rat α-thrombin; peptide 2.54E-04 uM): 99.5 and 98.8
Slope normalized to DMSO (proteolytic substrate cleavage over time) (rat α-thrombin; peptide 3.18E-05 uM): 98.9
Rat alpha thrombin inhibition, slope normalized to DMSO (rat α-thrombin; peptide 3.33E+01 uM): 4.5 and 3.9 and 18.0
Rat alpha thrombin inhibition, slope normalized to DMSO (rat α-thrombin; peptide 4.17E+00 uM): 21.1 and 20.6 and 33.2
Slope normalized to DMSO (proteolytic substrate cleavage over time) (rat α-thrombin; peptide 6.36E-05 uM): 99.5
Slope normalized to DMSO (proteolytic substrate cleavage over time) (rat α-thrombin; peptide 6.51E-02 uM): 99.3
Rat alpha thrombin inhibition, slope normalized to DMSO (rat α-thrombin; peptide 6.67E+01 uM): 2.7 and 2.5 and 17.0
Slope normalized to DMSO (proteolytic substrate cleavage over time) (rat α-thrombin; peptide 8.14E-03 uM): 99.8 and 99.9
Rat alpha thrombin inhibition, slope normalized to DMSO (rat α-thrombin; peptide 8.33E+00 uM): 14.3 and 13.8 and 26.6
SIF stability, Residual peptide Average (porcine pancreatin): 95.61
remaining at 8 h [1]: 96 ± 11%
PAMPA permeability: % permeability ([2]; 50 μM, 12–18 h, acceptor concentration relative to equilibrium): 2.0 ± 1.7%
Papp at 50 μM ([2]; PAMPA, pH 7.4): 0.107 ×10⁻⁶ cm/s
Permeability% Average ([2]; PAMPA, average of R1-R3): 2.0%
Permeability% R1 ([2]; PAMPA, replicate R1, TIC of top well sample relative to sample at theoretical equilibrium): 3.95%
Permeability% R3 ([2]; PAMPA, replicate R3, TIC of top well sample relative to sample at theoretical equilibrium): 1.45%
microsomal CLint ([3]; CL (ul/min/mg protein) R1, RLM CL, replicate R1): 187 µL/min/mg
microsomal CLint ([3]; CL (ul/min/mg protein) R2, RLM CL, replicate R2): 117 µL/min/mg
microsomal CLint ([3]; CL (ul/min/mg protein) R3, RLM CL, replicate R3): 148 µL/min/mg
half-life ([3]; Half Life (min) R1, RLM metabolic stability, replicate R1, 0-60 min): 7.4 min
half-life ([3]; Half Life (min) R2, RLM metabolic stability, replicate R2, 0-60 min): 11.9 min
half-life ([3]; Half Life (min) R3, RLM metabolic stability, replicate R3, 0-60 min): 9.38 min
half-life ([3]; Metabolic stability: Half life T1/2 (min), RLMs, mean and SD, three measurements): 9.5 ± 1.8 min
microsomal CLint ([3]; Metabolic stability: RLM CL (ul/min/mg), RLMs, mean and SD, three measurements): 151 ± 29 µL/min/mg
microsomal CLint ([3]; Metabolic stability: RLM CL Average, summary table, average of R1-R3): 151 µL/min/mg
microsomal CLint ([3]; Metabolic stability: RLM CL R1, summary table, rounded, replicate R1): 187 µL/min/mg
microsomal CLint ([3]; Metabolic stability: RLM CL R2, summary table, rounded, replicate R2): 117 µL/min/mg
microsomal CLint ([3]; Metabolic stability: RLM CL R3, summary table, rounded, replicate R3): 148 µL/min/mg
Human alpha thrombin inhibition, slope normalized to DMSO (human α-thrombin; peptide 1.02E-03 uM): 98.5 and 92.4 and 98.3
Human alpha thrombin inhibition, slope normalized to DMSO (human α-thrombin; peptide 1.04E+00 uM): 56.0 and 56.7 and 59.7
Human alpha thrombin inhibition, slope normalized to DMSO (human α-thrombin; peptide 1.27E-04 uM): 96.6 and 96.4 and 97.8
Human alpha thrombin inhibition, slope normalized to DMSO (human α-thrombin; peptide 1.30E-01 uM): 89.4 and 79.1 and 90.0
Human alpha thrombin inhibition, slope normalized to DMSO (human α-thrombin; [4]): 3.8 and 5.6 and 7.2
Human alpha thrombin inhibition, slope normalized to DMSO (human α-thrombin; peptide 1.63E-02 uM): 96.8 and 95.2 and 98.6
Human alpha thrombin inhibition, slope normalized to DMSO (human α-thrombin; peptide 1.67E+01 uM): 11.2 and 13.1 and 6.6
Human alpha thrombin inhibition, slope normalized to DMSO (human α-thrombin; peptide 2.03E-03 uM): 96.1 and 91.3 and 98.5
Human alpha thrombin inhibition, slope normalized to DMSO (human α-thrombin; peptide 2.08E+00 uM): 44.5 and 43.9 and 46.9
Human alpha thrombin inhibition, slope normalized to DMSO (human α-thrombin; peptide 2.54E-04 uM): 98.7 and 101.9 and 92.3
Human alpha thrombin inhibition, slope normalized to DMSO (human α-thrombin; peptide 2.60E-01 uM): 82.9 and 76.8 and 85.2
Human alpha thrombin inhibition, slope normalized to DMSO (human α-thrombin; peptide 3.18E-05 uM): 98.4 and 99.1 and 103.6
Human alpha thrombin inhibition, slope normalized to DMSO (human α-thrombin; peptide 3.26E-02 uM): 83.8 and 90.0 (2×)
Human alpha thrombin inhibition, slope normalized to DMSO (human α-thrombin; peptide 3.33E+01 uM): 7.3 and 17.9 and 6.7
Human alpha thrombin inhibition, slope normalized to DMSO (human α-thrombin; peptide 4.07E-03 uM): 97.5 and 98.3 and 97.0
Human alpha thrombin inhibition, slope normalized to DMSO (human α-thrombin; peptide 4.17E+00 uM): 31.6 and 18.4 and 32.8
Human alpha thrombin inhibition, slope normalized to DMSO (human α-thrombin; peptide 5.09E-04 uM): 94.9 and 94.8 and 96.2
Human alpha thrombin inhibition, slope normalized to DMSO (human α-thrombin; peptide 5.21E-01 uM): 73.3 and 69.5 and 73.8
Human alpha thrombin inhibition, slope normalized to DMSO (human α-thrombin; peptide 6.36E-05 uM): 99.0 and 95.7 and 105.1
Human alpha thrombin inhibition, slope normalized to DMSO (human α-thrombin; peptide 6.51E-02 uM): 92.9 and 89.5 and 93.7
Human alpha thrombin inhibition, slope normalized to DMSO (human α-thrombin; peptide 6.67E+01 uM): 5.0 (2×) and 5.6
Human alpha thrombin inhibition, slope normalized to DMSO (human α-thrombin; peptide 8.14E-03 uM): 98.2 and 94.5 and 89.6
Human alpha thrombin inhibition, slope normalized to DMSO (human α-thrombin; peptide 8.33E+00 uM): 20.4 and 21.3 and 21.0
Compound: O=C1CC2CCN(CC2)C(=O)[C@H](Cc2ccccc2)NC(=O)[C@@H](NC(=O)c2ccc(Cl)s2)CSCCS(=O)(=O)CCSCCN1 [compound 13]

Reference: PMC11062899, “De novo development of small cyclic peptides that are orally bioavailable” (Nature Chemical Biology, 2023)
